Experimental data taken from patent US12110305B2, “Prodrugs of phosphonamide nucleotide analogues and their pharmaceutical use” (priority 2020, dated 2024).

Tests used:
[1] = tested on: HIV-1 (IIIB); test: Antiviral (HIV) assay in MT-4 cells; type: cell-based; conditions: Human immunodeficiency virus 1, MT4, 120 h; HIV-1 IIIB in MT-4 cells, 5 days incubation, Cell Titer Glo; average of at least two independent experiments
Method in brief: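 MT-4 cells, infected with HIV-1 IIIB (1:250 dilution of concentrated stock) or mock-infected, were exposed to 1:3 serially diluted compounds in RPMI with 10% FBS. After 5 days at 37° C., CellTiter-Glo luminescence was read. EC50 = concentration causing […], from sigmoidal dose-response fits.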

[2] = tested on: PBMCs; test: TFV-DP formation in peripheral blood mononuclear cells (PBMCs); type: in vitro ADME, human; conditions: activated PBMCs, 1 μM compound, 50% serum, 2 hrs at 37° C.; intracellular volume 0.2 pL/cell; average of at least two independent experiments
Procedure: Example 109: TFV-DP Formation in Peripheral Blood Mononuclear Cells (PBMCs)
Compounds were tested in a 96-well assay format for the level of TFV-DP loading in PBMCs in the presence of human serum. PBMCs were activated with 100 units/mL recombinant human […] and 2 μg/mL phytohaemagglutinin (PHA) for 36 hrs. After activation, PBMCs (2 million) were incubated with compounds (1 μM) and cell culture media with 50% serum in a 96 well plate for 2 hrs at 37° C. Cells were transferred to a 96 well deep block plate and spun down. Liquid was removed, and cells were washed 2× with 1 mL of 0.9% saline with spin downs between washes. After a final wash and liquid removal, 500 μL of MeOH+200 nM Cl-ATP+200 nM [adenine-^13C5]-tenofovir diphosphate (tetra ammonium salt) was added and thoroughly mixed with the cells. The plate was then spun down and 450 μL of sample was transferred to a new 96 well plate. Supernatants were then evaporated, reconstituted in 80 μl of 1 mM ammonium phosphate and thoroughly vortexed. Blank samples were pooled for serial dilution to construct calibration standards for TFV, TFV-DP and TFV-TP in pmol/million cells. Samples were then transferred to a short-well 96 well plate, centrifuged and injected on an LC-MS/MS for quantification. Values were reported in μM units using an intracellular volume of 0.2 pL/cell.

EC50 [1]	Average PBMC TFV-DP (μM) [2]	SMILES
> 500 nM	BLQ	C[C@H](Cn1cnc2c(N)ncnc21)OCP(=O)(NC(C)(C)C(=O)OC1CCOCC1)NC(C)(C)C(=O)OC1CCOCC1 [Example 24, Bis(tetrahydro-2H-pyran-4-yl) 2,2′-(((((1-(6-amino-9H-purin-9-yl)propan-2-yl)oxy)methyl)phosphoryl)bis(azanediyl))(R)-bis(2-methylpropanoate)]
> 500 nM	BLQ	CCCCCCOC(=O)C(C)(C)NP(=O)(CO[C@H](C)Cn1cnc2c(NC(=O)CC(C)(C)CC(=O)OCc3oc(=O)oc3C)ncnc21)NC(C)(C)C(=O)OCCCCCC [Example 102, Dihexyl 2,2′-(((((1-(6-(3,3-dimethyl-5-((5-methyl-2-oxo-1,3-dioxol-4-yl)methoxy)-5-oxopentanamido)-9H-purin-9-yl)propan-2-yl)oxy)methyl)phosphoryl)bis(azanediyl))(R)-bis(2-methylpropanoate)]
172 nM	BLQ	C[C@H](Cn1cnc2c(N)ncnc21)OCP(=O)(NC(C)(C)C(=O)O[C@H]1CC[C@H](C(C)(C)C)CC1)NC(C)(C)C(=O)O[C@H]1CC[C@H](C(C)(C)C)CC1 [Example 12, Bis(trans-4-(tert-butyl)cyclohexyl) 2,2′-((((((R)-1-(6-amino-9H-purin-9-yl)propan-2-yl)oxy)methyl)phosphoryl)bis(azanediyl))bis(2-methylpropanoate)]
9 nM	–	CCC(CC)CCOC(=O)C(C)(C)NP(=O)(CO[C@H](C)Cn1cnc2c(N)ncnc21)NC(C)(C)C(=O)OCCC(CC)CC [Example 7, Bis(3-ethylpentyl) 2,2′-(((((1-(6-amino-9H-purin-9-yl)propan-2-yl)oxy)methyl)phosphoryl)bis(azanediyl))(R)-bis(2-methylpropanoate)]
6 nM	–	C[C@H](Cn1cnc2c(N)ncnc21)OCP(=O)(NC(C)(C)C(=O)OCC1CCCCCC1)NC(C)(C)C(=O)OCC1CCCCCC1 [Example 89, Bis(cycloheptylmethyl) 2,2′-(((((1-(6-amino-9H-purin-9-yl)propan-2-yl)oxy)methyl)phosphoryl)bis(azanediyl))(R)-bis(2-methylpropanoate)]
3 nM	–	C[C@H](Cn1cnc2c(N)ncnc21)OCP(=O)(NC(C)(C)C(=O)O[C@@H]1C[C@@H]2C[C@@H]2C1)NC(C)(C)C(=O)O[C@@H]1C[C@@H]2C[C@@H]2C1 [Example 60, Di((1R,3R,5S)-bicyclo[3.1.0]hexan-3-yl) 2,2′-((((((R)-1-(6-amino-9H-purin-9-yl)propan-2-yl)oxy)methyl)phosphoryl)bis(azanediyl))bis(2-methylpropanoate)]
7 nM	–	C[C@H](Cn1cnc2c(N)ncnc21)OCP(=O)(NC(C)(C)C(=O)OCCC1CCCCC1)NC(C)(C)C(=O)OCCC1CCCCC1 [Example 14, Bis(2-cyclohexylethyl) 2,2′-(((((1-(6-amino-9H-purin-9-yl)propan-2-yl)oxy)methyl)phosphoryl)bis(azanediyl))(R)-bis(2-methylpropanoate)]
4 nM	–	CCC(C)(C)CCOC(=O)C(C)(C)NP(=O)(CO[C@H](C)Cn1cnc2c(N)ncnc21)NC(C)(C)C(=O)OCCC(C)(C)CC [Example 54, Bis(3,3-dimethylpentyl) 2,2′-(((((1-(6-amino-9H-purin-9-yl)propan-2-yl)oxy)methyl)phosphoryl)bis(azanediyl))(R)-bis(2-methylpropanoate)]
> 500 nM	–	CCCCCCOC(=O)C(C)(C)NP(=O)(CO[C@H](C)Cn1cnc2c(N)ncnc21)NC(C)(C)C(=O)OCC1(F)CC1 (stereo partly drawn) [Example 78, (1-Fluorocyclopropyl)methyl 2-((((((R)-1-(6-amino-9H-purin-9-yl)propan-2-yl)oxy)methyl)((1-(hexyloxy)-2-methyl-1-oxopropan-2-yl)amino)phosphoryl)amino)-2-methylpropanoate]
6 nM	–	C[C@H](Cn1cnc2c(N)ncnc21)OCP(=O)(NC(C)(C)C(=O)O[C@H]1C[C@H](C(F)(F)F)C1)NC(C)(C)C(=O)O[C@H]1C[C@H](C(F)(F)F)C1 [Example 26, Bis(trans-3-(trifluoromethyl)cyclobutyl) 2,2′-((((((R)-1-(6-amino-9H-purin-9-yl)propan-2-yl)oxy)methyl)phosphoryl)bis(azanediyl))bis(2-methylpropanoate)]
> 500 nM	–	CCCCCCOC(=O)C(NP(=O)(CO[C@H](C)Cn1cnc2c(N)ncnc21)NC(C(=O)OCCCCCC)(C1CC1)C1CC1)(C1CC1)C1CC1 [Example 64, Dihexyl 2,2′-(((((1-(6-amino-9H-purin-9-yl)propan-2-yl)oxy)methyl)phosphoryl)bis(azanediyl))(R)-bis(2,2-dicyclopropylacetate)]
6 nM	–	CCCCCCOC(=O)C(C)(C)NP(=O)(CO[C@H](C)Cn1cnc2c(=N)n(Cc3oc(=O)oc3C)cnc21)NC(C)(C)C(=O)OCCCCCC [Example 83, Dihexyl 2,2′-(((((1-(6-imino-1-((5-methyl-2-oxo-1,3-dioxol-4-yl)methyl)-1,6-dihydro-9H-purin-9-yl)propan-2-yl)oxy)methyl)phosphoryl)bis(azanediyl))(R)-bis(2-methylpropanoate)]
7 nM	–	C[C@H](Cn1cnc2c(N)ncnc21)OCP(=O)(NC(C)(C)C(=O)OC1CCC(C)(C)CC1)NC(C)(C)C(=O)OC1CCC(C)(C)CC1 [Example 44, Bis(4,4-dimethylcyclohexyl) 2,2′-(((((1-(6-amino-9H-purin-9-yl)propan-2-yl)oxy)methyl)phosphoryl)bis(azanediyl))(R)-bis(2-methylpropanoate)]
9 nM	–	CCCCCCOC(=O)C(C)(C)NP(=O)(CO[C@H](C)Cn1cnc2c(N)ncnc21)NC(C)(C)C(=O)O[C@H]1CC[C@H](C(F)(F)F)CC1 (stereo partly drawn) [Example 22, Hexyl 2-((((((R)-1-(6-amino-9H-purin-9-yl)propan-2-yl)oxy)methyl)((2-methyl-1-oxo-1-((trans-4-(trifluoromethyl)cyclohexyl)oxy)propan-2-yl)amino)phosphoryl)amino)-2-methylpropanoate]
65 nM	–	CCCCCCOC(=O)C(C)(C)NP(=O)(CO[C@H](C)Cn1cnc2c(NC(C)=O)ncnc21)NC(C)(C)C(=O)OCCCCCC [Example 28, Dihexyl 2,2′-(((((1-(6-acetamido-9H-purin-9-yl)propan-2-yl)oxy)methyl)phosphoryl)bis(azanediyl))(R)-bis(2-methylpropanoate)]
169 nM	–	C[C@H](Cn1cnc2c(N)ncnc21)OCP(=O)(NC(C)(C)C(=O)OC(C)(C)C)NC(C)(C)C(=O)OC(C)(C)C [Example 9, Di-tert-butyl 2,2′-(((((1-(6-amino-9H-purin-9-yl)propan-2-yl)oxy)methyl)phosphoryl)bis(azanediyl))(R)-bis(2-methylpropanoate)]
30 nM	–	CCCCCCOC(=O)C1(NP(=O)(CO[C@H](C)Cn2cnc3c(N)ncnc32)NC2(C(=O)OCCCCCC)CCC2)CCC1 [Example 19, Dihexyl 1,1′-(((((1-(6-amino-9H-purin-9-yl)propan-2-yl)oxy)methyl)phosphoryl)bis(azanediyl))(R)-bis(cyclobutane-1-carboxylate)]
7 nM	–	C[C@H](Cn1cnc2c(N)ncnc21)OCP(=O)(NC(C)(C)C(=O)OCCC12CC(C1)C2)NC(C)(C)C(=O)OCCC12CC(C1)C2 [Example 62, Bis(2-(bicyclo[1.1.1]pentan-1-yl)ethyl) 2,2′-(((((1-(6-amino-9H-purin-9-yl)propan-2-yl)oxy)methyl)phosphoryl)bis(azanediyl))(R)-bis(2-methylpropanoate)]
26 nM	–	CCC[C@H]1CC[C@H](OC(=O)C(C)(C)NP(=O)(CO[C@H](C)Cn2cnc3c(N)ncnc32)NC(C)(C)C(=O)O[C@H]2CC[C@H](CCC)CC2)CC1 [Example 27]
23 nM	–	C[C@H](Cn1cnc2c(N)ncnc21)OCP(=O)(NC(C)(C)C(=O)OCC1CC2(C1)CC1(CCC1)C2)NC(C)(C)C(=O)OCC1CC2(C1)CC1(CCC1)C2 [Example 57, Bis(dispiro[3.1.3^6.1^4]decan-2-ylmethyl) 2,2′-(((((1-(6-amino-9H-purin-9-yl)propan-2-yl)oxy)methyl)phosphoryl)bis(azanediyl))(R)-bis(2-methylpropanoate)]
> 500 nM	–	CCCCCCOC(=O)C(C)(C)NP(=O)(CO[C@H](C)Cn1cnc2c(NC(=O)OCCC)ncnc21)NC(C)(C)C(=O)OCCCCCC [Example 31, Dihexyl 2,2′-(((((1-(6-((propoxycarbonyl)amino)-9H-purin-9-yl)propan-2-yl)oxy)methyl)phosphoryl)bis(azanediyl))(R)-bis(2-methylpropanoate)]
6 nM	–	CCCCCOC(=O)C(C)(C)NP(=O)(CO[C@H](C)Cn1cnc2c(N)ncnc21)NC(C)(C)C(=O)OCCCCC [Example 4, Dipentyl 2,2′-(((((1-(6-amino-9H-purin-9-yl)propan-2-yl)oxy)methyl)phosphoryl)bis(azanediyl))(R)-bis(2-methylpropanoate)]
